In US20150233926A1, “METHOD FOR SPECIFICALLY DETECTING A MATRIX METALLOPROTEINASE (MMP) WHICH IS ONLY OF INTEREST IN THE ACTIVE FORM THEREOF, IN A SAMPLE” (priority 2012, published 2015):

Legend:
human MMP 13 = human MMP 13 (Homo sapiens, UniProt P45452); test: Ki determination with fluorogenic substrate MCA-Mat, human MMP13; type: biochemical; conditions: recombinant MMP 13 h at 0.015 nM, 100 μL, MCA-Mat 15 μM
Procedure: (§1) The inhibition constants Ki of compounds P1, P2, and P3 were determined in comparison to human MMPs 2, 3, 8, 9, 12, 13, 14 and to murine MMP12. Recombinant proteases were used in volumes of 100 μL at concentrations of 0.05, 0.3, 0.03, 0.05, 0.03, 0.015, and 0.5 nM respectively for human MMPs 2, 3, 8, 9, 12, 13, 14, and at a concentration of 0.1 nM for murine MMP12. […] Recall that the lower the Ki of a compound, the greater its potential for inhibiting the chosen target.

human MMP 9 = human MMP 9 (Homo sapiens, UniProt P14780); test: Ki determination with fluorogenic substrate MCA-Mat, human MMP9; type: biochemical; conditions: recombinant MMP 9 h at 0.05 nM, 100 μL, MCA-Mat 15 μM
Procedure: as §1

human MMP 2 = molecular target: T1, human MMP 2 (Homo sapiens, UniProt P08253); test: Ki determination with fluorogenic substrate MCA-Mat, human MMP2; type: biochemical; conditions: recombinant MMP 2 h at 0.05 nM, 100 μL, MCA-Mat 15 μM
T1 sequence (P08253 110-660): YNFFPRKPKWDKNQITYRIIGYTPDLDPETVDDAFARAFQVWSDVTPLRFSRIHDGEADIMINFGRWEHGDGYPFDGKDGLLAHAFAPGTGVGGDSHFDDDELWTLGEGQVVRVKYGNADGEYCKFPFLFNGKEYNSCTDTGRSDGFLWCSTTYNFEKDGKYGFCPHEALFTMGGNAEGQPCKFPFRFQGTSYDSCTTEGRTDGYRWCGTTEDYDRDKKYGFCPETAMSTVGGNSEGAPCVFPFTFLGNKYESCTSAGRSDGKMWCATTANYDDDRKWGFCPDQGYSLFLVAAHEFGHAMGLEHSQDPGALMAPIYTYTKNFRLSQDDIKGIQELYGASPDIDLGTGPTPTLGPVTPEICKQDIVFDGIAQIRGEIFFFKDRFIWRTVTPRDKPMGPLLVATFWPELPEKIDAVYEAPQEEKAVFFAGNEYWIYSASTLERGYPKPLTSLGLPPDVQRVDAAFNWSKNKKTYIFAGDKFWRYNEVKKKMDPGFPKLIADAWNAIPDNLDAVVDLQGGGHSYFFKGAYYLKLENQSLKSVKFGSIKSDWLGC
Procedure: as §1

murine MMP12 = murine MMP12 (Mus musculus, UniProt P34960); test: Ki determination with fluorogenic substrate MCA-Mat, murine MMP12; type: biochemical; conditions: recombinant MMP 12 m at 0.1 nM, 100 μL, MCA-Mat 15 μM
Procedure: as §1

human MMP 8 = human MMP 8 (Homo sapiens, UniProt P22894); test: Ki determination with fluorogenic substrate MCA-Mat, human MMP8; type: biochemical; conditions: recombinant MMP 8 h at 0.03 nM, 100 μL, MCA-Mat 15 μM
Procedure: as §1

human MMP 14 = human MMP 14 (Homo sapiens, UniProt P50281); test: Ki determination with fluorogenic substrate MCA-Mat, human MMP14; type: biochemical; conditions: recombinant MMP 14 h at 0.5 nM, 100 μL, MCA-Mat 15 μM
Procedure: as §1

human MMP 12 = human MMP 12 (Homo sapiens, UniProt P39900); test: Ki determination with fluorogenic substrate MCA-Mat, human MMP12; type: biochemical; conditions: recombinant MMP 12 h at 0.03 nM, 100 μL, MCA-Mat 15 μM
Procedure: as §1

human MMP 3 = human MMP 3 (Homo sapiens, UniProt P08254); test: Ki determination with fluorogenic substrate MCA-Mat, human MMP3; type: biochemical; conditions: recombinant MMP 3 h at 0.3 nM, 100 μL, MCA-Mat 15 μM
Procedure: as §1

MMP12h = MMP12h (Homo sapiens, UniProt P39900); conditions: read-out: Ki with respect to MMP12h; competitor used in strip and EIA tests; described in Devel et al, 2006; cited from earlier work
Sequence of MMP12h (P39900 106-470): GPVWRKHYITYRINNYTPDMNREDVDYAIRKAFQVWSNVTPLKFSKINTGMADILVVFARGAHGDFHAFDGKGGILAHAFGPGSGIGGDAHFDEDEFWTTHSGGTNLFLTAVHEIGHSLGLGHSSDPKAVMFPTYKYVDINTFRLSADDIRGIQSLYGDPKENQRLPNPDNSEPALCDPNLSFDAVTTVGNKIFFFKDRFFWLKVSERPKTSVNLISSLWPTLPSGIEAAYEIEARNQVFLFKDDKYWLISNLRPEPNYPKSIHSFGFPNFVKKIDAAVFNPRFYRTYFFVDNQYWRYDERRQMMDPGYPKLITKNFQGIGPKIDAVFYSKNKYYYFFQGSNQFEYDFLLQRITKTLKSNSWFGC

Sequence of human MMP 8 (P22894 101-467): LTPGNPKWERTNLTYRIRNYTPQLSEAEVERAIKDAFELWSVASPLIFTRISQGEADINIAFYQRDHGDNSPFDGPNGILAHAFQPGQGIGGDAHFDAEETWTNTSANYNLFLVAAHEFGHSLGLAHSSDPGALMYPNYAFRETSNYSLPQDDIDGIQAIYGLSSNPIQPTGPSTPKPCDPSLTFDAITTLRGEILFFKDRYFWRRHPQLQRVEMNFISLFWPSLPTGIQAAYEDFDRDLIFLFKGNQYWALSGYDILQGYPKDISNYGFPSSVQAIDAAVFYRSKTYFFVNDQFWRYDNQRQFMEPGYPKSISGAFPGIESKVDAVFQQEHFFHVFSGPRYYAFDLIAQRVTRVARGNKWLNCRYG
Sequence of human MMP 3 (P08254 100-477): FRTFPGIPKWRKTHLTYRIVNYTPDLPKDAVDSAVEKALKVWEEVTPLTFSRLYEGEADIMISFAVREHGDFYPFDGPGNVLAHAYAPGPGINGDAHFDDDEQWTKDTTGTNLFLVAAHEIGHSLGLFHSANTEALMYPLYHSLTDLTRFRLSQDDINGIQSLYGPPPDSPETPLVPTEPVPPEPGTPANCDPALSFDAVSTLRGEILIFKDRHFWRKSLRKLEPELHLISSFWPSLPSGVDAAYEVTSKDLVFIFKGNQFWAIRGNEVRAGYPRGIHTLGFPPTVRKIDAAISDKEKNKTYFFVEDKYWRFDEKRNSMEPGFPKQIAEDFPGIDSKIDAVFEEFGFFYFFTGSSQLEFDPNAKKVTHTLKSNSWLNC
Sequence of human MMP 9 (P14780 94-707): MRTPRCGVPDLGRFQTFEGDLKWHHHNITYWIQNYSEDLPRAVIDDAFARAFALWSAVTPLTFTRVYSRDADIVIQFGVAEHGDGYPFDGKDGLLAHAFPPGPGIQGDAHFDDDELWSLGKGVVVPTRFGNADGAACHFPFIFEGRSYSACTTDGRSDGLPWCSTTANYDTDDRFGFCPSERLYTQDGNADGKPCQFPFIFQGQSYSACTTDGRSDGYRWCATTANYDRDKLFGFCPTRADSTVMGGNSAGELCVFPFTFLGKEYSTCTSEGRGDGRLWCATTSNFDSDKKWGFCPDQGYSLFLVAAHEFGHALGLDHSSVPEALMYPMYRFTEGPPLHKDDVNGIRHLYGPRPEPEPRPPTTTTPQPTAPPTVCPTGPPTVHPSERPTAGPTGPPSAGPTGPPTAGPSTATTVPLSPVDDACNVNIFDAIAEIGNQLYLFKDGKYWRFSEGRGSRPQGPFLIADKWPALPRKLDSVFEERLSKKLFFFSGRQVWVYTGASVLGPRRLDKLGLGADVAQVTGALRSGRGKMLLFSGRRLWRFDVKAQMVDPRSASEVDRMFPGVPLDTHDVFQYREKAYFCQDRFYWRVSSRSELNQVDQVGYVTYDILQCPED
Sequence of murine MMP12 (P34960 110-473): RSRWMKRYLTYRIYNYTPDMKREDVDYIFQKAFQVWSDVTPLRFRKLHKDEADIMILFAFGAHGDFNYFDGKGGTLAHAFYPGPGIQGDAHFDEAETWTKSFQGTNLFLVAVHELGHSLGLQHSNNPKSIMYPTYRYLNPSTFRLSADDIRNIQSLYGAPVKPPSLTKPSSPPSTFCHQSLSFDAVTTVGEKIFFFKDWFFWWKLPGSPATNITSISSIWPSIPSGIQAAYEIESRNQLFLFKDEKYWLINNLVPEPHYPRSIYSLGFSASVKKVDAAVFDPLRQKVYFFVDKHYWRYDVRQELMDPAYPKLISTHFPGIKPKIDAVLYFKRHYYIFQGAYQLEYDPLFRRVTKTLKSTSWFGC
Sequence of human MMP 12 (P39900 106-470): as the sequence (P39900 106-470) above

SMILES	Ki (human MMP 13)	Ki (human MMP 9)	Ki (human MMP 2)	Ki (murine MMP12)	Ki (human MMP 8)	Ki (human MMP 14)	Ki (human MMP 12)	Ki (human MMP 3)	Ki (MMP12h)
CC(=O)SCC(=O)NCCOCCOCCOCCOCCOCCOCCOCCOCCOCCOCCOCCOCCOCCOCCOCCOCCOCCOCCOCOCCOCCOCCOCCOCCOCCOCCOCCOCCC(=O)NCCCOCCOCCOCCCNC(=O)CNC(=O)[C@H](C)NC(=O)[C@H](Cc1ccc(O)cc1)NC(=O)C(Cc1cc(-c2ccc(-c3cccc(Cl)c3)cc2)no1)CP(=O)(O)[C@H](Cc1ccccc1)NC(=O)[C@H](C)NC(=O)[C@@H]1CCCN1C(C)=O (stereo partly shown) [Ligand P1]	17 pM	280 pM	120 pM	80 pM	90 pM	530 pM	30 pM	750 pM	–
CC(=O)N1CCC[C@H]1C(=O)N[C@@H](C)C(=O)N[C@@H](Cc1ccccc1)P(=O)(O)CC(Cc1cc(-c2ccc(-c3cccc(Cl)c3)cc2)no1)C(=O)N[C@@H](Cc1ccc(O)cc1)C(=O)N[C@@H](C)C(=O)NCC(=O)NCCCOCCOCCOCCCNC(=O)CCOCCOCCOCCOCCOCCOCCOCCOCCOCOCCOCCOCCOCCOCCOCCOCCOCCOCCOCCOCCOCCOCCOCCOCCNC(=O)CCCN1C(=O)C=CC1=O (stereo partly shown) [Ligand P2]	30 pM	480 pM	150 pM	90 pM	120 pM	700 pM	50 pM	1000 pM	–
CCC(=O)NOCCOCCOCCOCCOCCOCCOCCOCCOCCOCCOCCOCCOCOCCOCCOCCOCCOCCOCCOCCOCCOCCOCCOCCOCCOCCOCCOCCC(=O)N1CCC[C@H]1C(=O)N[C@@H](C)C(=O)N[C@@H](Cc1ccccc1)P(=O)(O)CC(Cc1cc(-c2ccc(-c3cccc(Cl)c3)cc2)no1)C(=O)N[C@@H](Cc1ccc(O)cc1)C(=O)N[C@@H](C)C(=O)NCC(=O)NCCCOCCOCCOCCCNC(=O)CCCCC1SCC2NC(=O)NC21 (stereo partly shown) [Ligand P3]	70 pM	730 pM	300 pM	660 pM	470 pM	1820 pM	260 pM	1550 pM	–
NC(=O)C(CCC(=O)O)NC(=O)C(CCC(=O)O)NC(=O)C(Cc1cc(-c2ccc(-c3cccc(Cl)c3)cc2)no1)CP(=O)(O)c1ccc(Br)cc1 (stereo not shown) [RXP470.1]	–	–	–	–	–	–	–	–	200 pM
